Measurements taken from patent US8551978B2 (Theravance, Inc., priority 2009, dated 2013).
Counter-ions that a name gives are not always drawn. Like-named read-outs stand apart in the source and are kept apart here.

What was measured:
hM3 muscarinic receptor = hM3 muscarinic receptor (Homo sapiens (Human), UniProt P20309); assay: Radioligand binding assay for muscarinic receptors ([3H]-NMS displacement, CHO cell membranes)
Method: The cells were grown in a 5% CO2, 37° C. incubator and lifted with 2 mM EDTA in dPBS. Cells were collected by 5 minute centrifugation at 650×g, and cell pellets were either stored frozen at −80° C. or membranes were prepared immediately for use. For membrane preparation, cell pellets were resuspended in lysis buffer and homogenized with a Polytron PT-2100 tissue disrupter (Kinematica AG; 20 seconds×2 bursts). Crude membranes were centrifuged at 40,000×g for 15 minutes at 4° C. The membrane pellet was then resuspended with re-suspension buffer and homogenized again with the Polytron tissue disrupter. The protein concentration of the membrane suspension was determined by the method described in Lowry et al., 1951, […], 193, 265. All membranes were stored frozen in aliquots at −80° C. or used immediately. […] The membranes were briefly homogenized using a Polytron tissue disruptor (10 seconds) prior to assay plate addition. […] The test compounds were initially dissolved to a concentration of 400 μM in dilution buffer and then serially diluted 5× with dilution buffer to final concentrations ranging from 10 μM to […]. The order of addition and volumes added to the assay plates were as follows: 25 μL radioligand, 25 μL diluted test compound, and 50 μL membranes. Assay plates were incubated for 6 hours at 37° C. […] Filter plates were rinsed three times with wash buffer (10 mM HEPES) to remove unbound radioactivity. The plates were then air-dried and 50 μL Microscint-20 liquid scintillation fluid (PerkinElmer, Inc.) were added to each well. The plates were then counted in a PerkinElmer Topcount liquid scintillation counter (PerkinElmer, Inc.). Binding data were analyzed by nonlinear regression analysis with the GraphPad Prism Software package (GraphPad Software, Inc., San Diego, Calif.) using the one-site competition model. […] These summary statistics were then converted back to K; values for data reporting.

hβ2 adrenergic receptor = hβ2 adrenergic receptor (Homo sapiens (Human), UniProt P07550); assay: Assay for determining adrenergic receptor agonist potency (cAMP Flashplate, HEK-293 cells); type: cell-based; settings: data rounded to nearest 1 nM
Method: The cell monolayer was lifted with 2 mM EDTA in PBS. Cells were pelleted by centrifugation at 1,000 rpm, and cell pellets were either stored frozen at −80° C. or membranes were prepared immediately for use. cAMP assays were performed in a radioimmunoassay format using the Flashplate Adenylyl Cyclase Activation Assay System with [^125I]-cAMP (NEN SMP004, PerkinElmer Life Sciences Inc., Boston, Mass.), according to the manufacturers instructions. […] Cells were rinsed with PBS and detached in dPBS (Dulbecco's Phosphate Buffered Saline, without CaCl2 and MgCl2) containing 2 mM EDTA or Trypsin-EDTA solution (0.05% trypsin/0.53 mM EDTA). After counting cells in Coulter cell counter, cells were pelleted by centrifugation at 1,000 rpm and re-suspended in stimulation buffer containing TBMX (PerkinElmer Kit) pre-warmed to room temperature to a concentration of 1.6×10^6 to 2.8×10^6 cells/mL. About 40,000 to 80,000 cells per well were used in this assay. […] Reactions were incubated for 10 min at 37° C. and stopped by adding 100 μL of cold detection buffer containing [^125I]-cAMP (NEN SMP004, PerkinElmer Life Sciences, Boston, Mass.). […] Data were analyzed by nonlinear regression analysis with the GraphPad Prism Software package (GraphPad Software, Inc., San Diego, Calif.) with the sigmoidal equation. The Cheng-Prusoff equation (Cheng Y, and Prusoff W H., Biochemical Pharmacology, 1973, 22, 23, 3099-108) was used to calculate the EC50 values.

[1] = test system: MCh-induced bronchoconstriction; assay: Einthoven assay: bronchoprotection against methacholine (MCh)-induced bronchoconstriction; type: in vivo, rat; settings: for inhibition in vivo at 0.1 mg: inhaled or nasal, read-out: Broncho. at 24 h
Method: This assay measures the ability of a test compound to provide bronchoprotection against methacholine (MCh)-induced bronchoconstriction in a rat. Male Sprague-Dawley rats (Harlan, Indianapolis, Ind.), weighing between 200 g and 350 g, were used for all studies. Test compound or vehicle (sterile deionized water) were dosed by inhalation (1H) over a 10 min period in a pie shaped inhalation chamber (R+S Molds, San Carlos, Calif.) using 5 mL of dosing solution. […] Rats were dosed with 100 μg of test compound unless otherwise indicated. At predetermined time points, rats were anesthetized with an intraperitoneal (IP) injection of 120 mg/kg inactin (thiobutabarbital). A supplemental dose (40 mg/kg, IP) was administered if the animal responded to physical stimuli (e.g. toe pinch). The surgical site was shaved and a 1-2 cm midline incision of the ventral aspect of the neck was made. The jugular vein was isolated and cannulated with a saline-filled polyethylene catheter (PE-50) to allow IV infusion of MCh. Trachea was dissected free and cannulated with a 14G needle (#NE-014, Small Parts, Miami Lakes, Fla.). After placement of the tracheal cannula, each rat was ventilated using a respirator (Model 683, Harvard Apparatus, Inc., MA) set at a stroke volume of 1 mL/100 g body weight (but not exceeding 2.5 mL volume) and a rate of 90 strokes per minute. A T-connector was placed along the respirator expiratory tubing to allow for measurement of changes in ventilation pressure (VP) using a Biopac transducer that was connected to a Biopac […]) pre-amplifier. Body temperature was maintained at 37° C. using a heating pad. Changes in VP were recorded using the Acknowledge Data Collection Software (Santa Barbara, Calif.). Baseline values were collected for at least 2.5 min. Rats were then challenged with non-cumulative intravenous (IV) infusions of 40 and 80 μg/kg MCh. MCh was infused intravenously for 2.5 minutes from a syringe pump (sp210iw, World Precision Instruments, Inc., Sarasota, Fla.) at a rate of 2 mL/kg/min, with a 2 minute interval between the two doses of MCh. Changes in ventilation pressure (cm H2O) in treated animals are expressed as % inhibition of MCh response relative to control animals. Other bronchoconstrictors, such as histamine and acetylcholine, can be used in place of MCh in this assay. Additionally, guinea pigs can be used instead of rats. […] Inhibition greater than or equal to 30 percent at 24 h is indicative of a long duration of action.

[2] = rat, 100 μg by inhalation, 24 h after administration
[3] = hM3 Muscarinic Receptor Binding, data rounded to nearest 0.1 nM

Sequence of hβ2 adrenergic receptor (P07550 whole entry): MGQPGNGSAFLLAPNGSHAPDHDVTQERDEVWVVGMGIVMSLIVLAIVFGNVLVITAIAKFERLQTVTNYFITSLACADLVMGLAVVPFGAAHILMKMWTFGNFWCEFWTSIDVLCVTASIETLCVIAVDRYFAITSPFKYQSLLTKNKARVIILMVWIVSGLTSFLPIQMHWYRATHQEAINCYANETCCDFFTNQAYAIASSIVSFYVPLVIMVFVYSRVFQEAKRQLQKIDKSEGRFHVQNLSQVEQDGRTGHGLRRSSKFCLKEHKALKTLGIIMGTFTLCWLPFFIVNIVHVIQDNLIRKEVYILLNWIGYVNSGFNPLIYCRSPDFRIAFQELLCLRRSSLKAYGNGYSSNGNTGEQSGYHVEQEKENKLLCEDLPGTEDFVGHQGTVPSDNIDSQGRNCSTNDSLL
Sequence of hM3 muscarinic receptor (P20309 whole entry): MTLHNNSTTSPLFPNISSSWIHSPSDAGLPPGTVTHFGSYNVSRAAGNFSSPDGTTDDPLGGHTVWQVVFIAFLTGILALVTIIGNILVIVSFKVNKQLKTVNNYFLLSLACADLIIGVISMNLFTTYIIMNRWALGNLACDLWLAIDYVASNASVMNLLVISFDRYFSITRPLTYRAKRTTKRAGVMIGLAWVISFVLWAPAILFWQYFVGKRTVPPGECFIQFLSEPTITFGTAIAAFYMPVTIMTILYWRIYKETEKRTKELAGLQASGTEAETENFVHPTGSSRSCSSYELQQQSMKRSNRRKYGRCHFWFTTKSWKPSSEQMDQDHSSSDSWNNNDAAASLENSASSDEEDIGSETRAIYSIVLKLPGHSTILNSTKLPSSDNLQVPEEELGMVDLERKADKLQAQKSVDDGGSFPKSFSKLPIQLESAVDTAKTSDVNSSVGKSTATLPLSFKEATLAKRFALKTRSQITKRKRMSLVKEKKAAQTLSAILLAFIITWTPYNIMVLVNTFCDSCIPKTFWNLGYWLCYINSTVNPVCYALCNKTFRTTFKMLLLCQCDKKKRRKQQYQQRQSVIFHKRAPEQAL

| SMILES | Ki (hM3 muscarinic receptor) [nM] | EC50 (hβ2 adrenergic receptor) [nM] | inhibition in vivo at 0.1 mg [1, 2] [%] | Broncho. at 24 h [1, 2] | Ki (hM3 muscarinic receptor; [3]) [nM] | inhibition in vivo at 0.1 mg ([1]; Rattus norvegicus, 24 h) [%] |
| --- | --- | --- | --- | --- | --- | --- |
| CC(Cc1cccc(CC(=O)NCc2ccc(N(C)C(=O)CCN3CCC(OC(=O)Nc4ccccc4-c4ccccc4)CC3)cc2)c1)NC[C@H](O)c1ccc(O)c2[nH]c(=O)ccc12 (stereo partly drawn) [Compound I-77] | 0.1 | 1 | > 30 | – | – | – |
| C[C@H](Cc1cccc(NC(=O)c2cccc(N(C)C(=O)CCN3CCC(OC(=O)Nc4ccccc4-c4ccccc4)CC3)c2)c1)NC[C@H](O)c1ccc(O)c2[nH]c(=O)ccc12 [Compound I-38] | 0.2 | 1 | – | No | – | – |
| CN(C(=O)CCN1CCC(OC(=O)Nc2ccccc2-c2ccccc2)CC1)c1ccc(CC(=O)NCc2ccc(CCNC[C@H](O)c3ccc(O)c4[nH]c(=O)ccc34)cc2)cc1 [Compound I-64] | – | 1 | – | No | 0.3 | – |
| CC(Cc1ccc(CCNC(=O)Cc2ccc(N(C)C(=O)CCN3CCC(OC(=O)Nc4ccccc4-c4ccccc4)CC3)cc2)cc1)NC[C@H](O)c1ccc(O)c2[nH]c(=O)ccc12 (stereo partly drawn) [Compound I-88] | 0.1 | 1 | > 30 | – | – | – |
| COc1cc(NC(=O)CCCCN(C)C(=O)CCN2CCC(OC(=O)Nc3ccccc3-c3ccccc3)CC2)c(Cl)cc1CNC[C@H](O)c1ccc(O)c2[nH]c(=O)ccc12 [Compound I-19] | 0.1 | 1 | > 30 | – | – | – |
| C[C@H](Cc1cccc(CC(=O)NCCCCN(C)C(=O)CCN2CCC(OC(=O)Nc3ccccc3-c3ccccc3)CC2)c1)NC[C@H](O)c1ccc(O)c2[nH]c(=O)ccc12 [Compound I-23] | 0.1 | 1 | > 30 | – | – | – |
| C[C@H](Cc1cccc(CCNC(=O)c2ccc(N(C)C(=O)CCN3CCC(OC(=O)Nc4ccccc4-c4ccccc4)CC3)cc2)c1)NC[C@H](O)c1ccc(O)c2[nH]c(=O)ccc12 [Compound I-55] | – | 1 | > 30 | – | 0.2 | – |
| C[C@@H](Cc1cccc(CCNC(=O)c2ccc(N(C)C(=O)CCN3CCC(OC(=O)Nc4ccccc4-c4ccccc4)CC3)cc2)c1)NC[C@H](O)c1ccc(O)c2[nH]c(=O)ccc12 [Compound I-56] | – | 1 | – | No | 0.2 | – |
| CC(Cc1ccc(CNC(=O)c2cccc(N(C)C(=O)CCN3CCC(OC(=O)Nc4ccccc4-c4ccccc4)CC3)c2)cc1)NC[C@H](O)c1ccc(O)c2[nH]c(=O)ccc12 (stereo partly drawn) [Compound I-46] | 0.1 | 1 | > 30 | – | – | – |
| CC(Cc1ccc(CC(=O)NCc2ccc(N(C)C(=O)CCN3CCC(OC(=O)Nc4ccccc4-c4ccccc4)CC3)cc2)cc1)NC[C@H](O)c1ccc(O)c2[nH]c(=O)ccc12 (stereo partly drawn) [Compound I-80] | – | 1 | – | No | 0.2 | – |
| Cc1cc(CNC[C@H](O)c2ccc(O)c3[nH]c(=O)ccc23)ccc1NC(=O)CCCCN(C)C(=O)CCN1CCC(OC(=O)Nc2ccccc2-c2ccccc2)CC1 [Compound I-15] | 0.1 | 1 | > 30 | – | – | – |
| C[C@@H](Cc1cccc(CNC(=O)Cc2ccc(N(C)C(=O)CCN3CCC(OC(=O)Nc4ccccc4-c4ccccc4)CC3)cc2)c1)NC[C@H](O)c1ccc(O)c2[nH]c(=O)ccc12 [Compound I-69] | 0.1 | 1 | > 30 | – | – | – |
| COc1cc(CNC[C@H](O)c2ccc(O)c3[nH]c(=O)ccc23)ccc1NC(=O)c1cccc(N(C)C(=O)CCN2CCC(OC(=O)Nc3ccccc3-c3ccccc3)CC2)c1 [Compound I-29] | – | 1 | – | No | 0.1 | – |
| Cc1ccc(C(=O)NCc2cccc(CC(C)NC[C@H](O)c3ccc(O)c4[nH]c(=O)ccc34)c2)cc1N(C)C(=O)CCN1CCC(OC(=O)Nc2ccccc2-c2ccccc2)CC1 (stereo partly drawn) [Compound I-45] | – | 1 | – | No | 0.2 | – |
| Cc1ccc(C(=O)Nc2ccc(CNC[C@H](O)c3ccc(O)c4[nH]c(=O)ccc34)cc2)cc1N(C)C(=O)CCN1CCC(OC(=O)Nc2ccccc2-c2ccccc2)CC1 [Compound I-26] | 0.2 | 1 | > 30 | – | – | – |
| Cc1cc(NC(=O)CCCCN(C)C(=O)CCN2CCC(OC(=O)Nc3ccccc3-c3ccccc3)CC2)c(C)cc1CNC[C@H](O)c1ccc(O)c2[nH]c(=O)ccc12 [Compound I-18, Biphenyl-2-ylcarbamic Acid 1-(2-{[4-(4-{[(R)-2-Hydroxy-2-(8-hydroxy-2-oxo-1,2-dihydroquinolin-5-yl)ethylamino]methyl}-2,5-dimethylphenylcarbamoyl)butyl]methylcarbamoyl}ethyl)piperidin-4-yl Ester Ditrifluoroacetic Acid Salt] | 0.1 | 1 | – | – | – | > 30 |
| C[C@H](Cc1cccc(CC(=O)NCc2ccc(N(C)C(=O)CCN3CCC(OC(=O)Nc4ccccc4-c4ccccc4)CC3)cc2)c1)NC[C@H](O)c1ccc(O)c2[nH]c(=O)ccc12 [Compound I-78] | 0.3 | 1 | > 30 | – | – | – |
| CC(Cc1ccc(CC(=O)Nc2cccc(N(C)C(=O)CCN3CCC(OC(=O)Nc4ccccc4-c4ccccc4)CC3)c2)cc1)NC[C@H](O)c1ccc(O)c2[nH]c(=O)ccc12 (stereo partly drawn) [Compound I-53] | 0.1 | 1 | – | No | – | – |
| CN(CCCCC(=O)Nc1ccc(CCNC[C@H](O)c2ccc(O)c3[nH]c(=O)ccc23)cc1)C(=O)CCN1CCC(OC(=O)Nc2ccccc2-c2ccccc2)CC1 [Compound I-21] | 0.1 | 1 | > 30 | – | – | – |
| CC(Cc1cccc(CNC(=O)c2cccc(N(C)C(=O)CCN3CCC(OC(=O)Nc4ccccc4-c4ccccc4)CC3)c2)c1)NC[C@H](O)c1ccc(O)c2[nH]c(=O)ccc12 (stereo partly drawn) [Compound I-44] | 0.1 | 1 | – | No | – | – |
